This note sets out measurements from EP0545911B1, “Lanthionine-containing bacteriocin compositions for use as bactericides” (APPLIED MICROBIOLOGY, INC., priority 1988, dated 1996).

What is called viability is a read-out of living cells in per cent, often relative to untreated cells. A low value points to a greater loss of cells.

Assay type in all cases: cell-based
One assay has as its system Streptococcus agalactiae. Put plainly: Bactericidal activity (percent bacterial survival, CFU count) in milk at 37°C. The following applies: for % survival at 2hr: Monolaurin 0 %. How it is done:
(§1) All tests in the following examples were performed at 37°C. The efficacy of the enhanced broad range bactericides was determined by assaying bactericidal activity as measured by the percent bacterial survival after treatment with the bactericide. Generally, after incubation of a 10^7 cell per ml suspension of target species with the novel bactericide for specified lengths of time, bacteria were collected by centrifugation for 2 minutes. The bacterial pellet was washed free of the bactericide with a rescue buffer, termed herein Phage buffer (50mM Tris-HCl buffer pH 7.8, 1mM MgSO4, 4mM CaCl2, 0.1 M NaCl, and 0.1% gelatin), resuspended and serially diluted into Phage buffer, and […] of the suspended bacteria were spread on nutrient agar plates. Surviving bacteria were determined by scoring colony forming units (CFU) after incubation for 24-48 hours at 37°C. An effective bactericide according to this invention is one which allows less than 0.1% of the initial viable count of the bacteria to survive.
Thus, when the application of nisin is limited by its available activity, a bactericide comprising nisin with a surfactant can be expected to be more useful.

Assay [1] deals with Listeria monocytogenes. Described as above. How it is done: as §1
Assay [2] relates to Listeria monocytogenes. The following applies: monooleate by itself; milk. How it is done: as §1

In turn, `CCCCCCCCCCCC(=O)OCC(O)CO` (stereo not drawn) [Monolaurin, monolaurin] had a viability at 0.01 % in the assay on Streptococcus agalactiae (Streptococcus agalactiae, 2 h, Nisin 0 µg/ml, Monolaurin 0.01 %, 37°C, initial viable counts 6.0 x 10^7 cfu/ml) of 100%. The viability at 0.1 % with Streptococcus agalactiae (Streptococcus agalactiae, 2 h, Nisin 0 µg/ml, Monolaurin 0.1 %, 37°C, initial viable counts 6.0 x 10^7 cfu/ml) stood at 4.5%. Further, the “bactericidal activity towards Streptococcus agalactiae (in words)” value in the assay on Streptococcus agalactiae (monolaurin alone at concentrations up to 0.1%) is recorded as “little significant bactericidal activity”.
Consider “Nisin (ITSISLCTPGCKTGALMGCNMKTATCHCSIHVSK; not fully specified; Lantibiotic nisin-A; UniProt P13068 24-57, looked up) [polypeptide with antimicrobial properties produced by strains of Streptococcus lactis; lanthionine-containing peptide bacteriocin, known food preservative]”, for which the “% survival at 2hr” value with Streptococcus agalactiae (Nisin 0.02 µg/ml, 37°C, initial viable counts 6.0 x 10^7 cfu/ml) came out at 100%; with Streptococcus agalactiae (Nisin 0.2 µg/ml, 37°C, initial viable counts 6.0 x 10^7 cfu/ml) it was 2.2%; in the assay with Listeria monocytogenes [1] (Nisin 100 µg/ml, Monooleate 0 %, milk, 37°C, initial viable count 5.0 x 10^7 cfu/ml), 0.56%. In the assay with Streptococcus agalactiae (nisin alone at concentrations up to 0.2 µg.ml), the “bactericidal activity in milk (in words)” value is “does not exhibit significant bactericidal activity”. Besides, the “available nisin activity towards L. monocytogenes (in words)” value in the assay on Listeria monocytogenes [1] (nisin alone, complex medium like milk) is recorded as “restricted”.
In the case of glyceride monooleate, the “bactericidal activity towards L. monocytogenes (in words)” value in the assay on Listeria monocytogenes [2] is reported as “no bactericidal activity”.
